Measurements taken from US20240102051A1, “MULTIFUNCTIONAL COPOLYMERIC NANOPARTICLE” (Iran University of Medical Sciences, priority 2021, published 2024).

Tested on: P. aeruginosa
Test: Antibacterial activity (MIC) against P. aeruginosa
Type: cell-based, Pseudomonas aeruginosa
Procedure: In this example, the antibacterial activity of exemplary multifunctional copolymeric nanoparticles against Gram-negative and Gram-positive strains, including P. aeruginosa, E. coli, S. aureus, and Enterococcus, were investigated based on their minimum bactericidal concentration (MBC) and minimum inhibitory concentration (MIC). Reaction time for synthesis of exemplary multifunctional copolymeric nanoparticles (AX) was varied from 1 hour to 72 hours to fine-tune the antibacterial activity of the exemplary multifunctional copolymeric nanoparticles. FIG. 11 illustrates a chart 1100 for the antibacterial activity of exemplary multifunctional copolymeric nanoparticles synthesized in different reaction times (1, 3, 8, 24, and 72 hours), consistent with one or more exemplary embodiments of the present disclosure.

## gentamicin
  MIC: > 64 µg/mL
